These results are taken from ChEMBL document CHEMBL1909294, “Translating clinical findings into knowledge in drug safety evaluation--drug induced liver injury prediction system (DILIps)” (PLoS Comput Biol, 2011).

In data set [1] the test system is Hepatotoxicity.
Data set [2] relates to Hepatotoxicity. The source holds these as a separate data set.
The test system of data set [3] is Hepatotoxicity. This is another data set of the same source.
Data set [4] relates to Hepatotoxicity. This is another data set of the same source.
The subject of data set [5] is Hepatotoxicity. The source holds these as a separate data set.
The test system of data set [6] is Hepatotoxicity. This is another data set of the same source.
For data set [7], the system named is Hepatotoxicity. This is another data set of the same source.
Data set [8] relates to Hepatotoxicity. The source holds these as a separate data set.
The subject of data set [9] is Hepatotoxicity. The source holds these as a separate data set.
For data set [10], the system named is Hepatotoxicity. This is another data set of the same source.
Data set [11] has as its system Hepatotoxicity. The source holds these as a separate data set.
For data set [12], the system named is Hepatotoxicity. This is another data set of the same source.
Data set [13] has as its system Hepatotoxicity. The source holds these as a separate data set.
The subject of data set [14] is Hepatotoxicity. The source holds these as a separate data set.
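For HepSE Combined Scores in this document: combined hepatic side effect score as listed in the training data of the Drug Induced Liver Injury Prediction System (DILIps).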
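For HepSE bilirubinemia in this document: bilirubinemia hepatic side effect score drawn from the DILIps training data, a prediction system for drug-induced liver injury; call rule not given here.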
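For HepSE cholecystitis in this document: Cholecystitis-related hepatic side effect score drawn from the DILIps (drug-induced liver injury prediction) training data set; call rule not given here.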
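For HepSE cholelithiasis in this document: hepatic side effect score for cholelithiasis, drawn from the DILIps training data for predicting drug-induced liver injury; call rule not given here.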
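For HepSE cirrhosis in this document: cirrhosis hepatic side effect score taken from the DILIps (drug-induced liver injury prediction) training set; call rule not given here.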
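For HepSE elevated liver function tests in this document: hepatic side effect score for raised liver function tests, as recorded in the DILIps training set used for predicting drug-induced liver injury.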
For HepSE hepatic failure in this document: call rule not given here.
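For HepSE hepatic necrosis in this document: score of hepatic side effects for hepatic necrosis, drawn from the training data of DILIps, a prediction system for drug-induced liver injury; call rule not given here.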
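For HepSE hepatitis in this document: Hepatitis-related hepatic side effect score taken from the training data of DILIps, a prediction system for drug-induced liver injury; call rule not given here.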
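For HepSE hepatomegaly in this document: hepatic side effect score for hepatomegaly, taken from the training set of the DILIps drug-induced liver injury prediction system; call rule not given here.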
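For HepSE jaundice in this document: Jaundice-related hepatic side-effect score drawn from the training data of the DILIps (drug-induced liver injury prediction system); call rule not given here.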
For HepSE liver disease in this document: call rule not given here.
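For HepSE liver fatty in this document: hepatic side effect score for fatty liver, taken from the DILIps training set for predicting drug-induced liver injury; call rule not given here.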
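For HepSE liver function tests abnormal in this document: hepatic side effect score taken from the DILIps (drug-induced liver injury prediction system) training data, here covering abnormal liver function test findings.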

In the case of `CO[C@@]1(NC(=O)Cc2cccs2)C(=O)N2C(C(=O)O)=C(COC(N)=O)CS[C@@H]21` [CEFOXITIN], the HepSE_cholecystitis in the data set on Hepatotoxicity [1] stood at 0. In addition, the HepSE_liver disease in the data set with Hepatotoxicity [2] is given as 0. Further, the “HepSE_elevated liver function tests” value with Hepatotoxicity [3] turned out to be 0. The compound further registered a HepSE_hepatomegaly in the data set on Hepatotoxicity [4] of 0. This compound returned a HepSE_bilirubinemia with Hepatotoxicity [5] of 0. The “HepSE_liver function tests abnormal” value in the data set with Hepatotoxicity [6] was 0. The “HepSE_Combined Scores” value in the data set with Hepatotoxicity [7] amounted to 1. The compound further showed a HepSE_hepatic necrosis in the data set with Hepatotoxicity [8] of 0. Moreover, in the data set on Hepatotoxicity [9], the HepSE_cholelithiasis is given as 0. This compound also displayed a HepSE_jaundice with Hepatotoxicity [10] of 1. In addition, the HepSE_cirrhosis in the data set on Hepatotoxicity [11] came to 0. Moreover, in the data set with Hepatotoxicity [12], the HepSE_hepatitis worked out at 0. In addition, in the data set with Hepatotoxicity [13], the HepSE_liver fatty turned out to be 0. In the data set on Hepatotoxicity [14], the HepSE_hepatic failure is given as 0.

Compound `Cc1cccc(Nc2ccncc2S(=O)(=O)NC(=O)NC(C)C)c1` [TORSEMIDE] came in with a HepSE_cholecystitis in the data set on Hepatotoxicity [1] of 0. The HepSE_liver disease in the data set on Hepatotoxicity [2] is recorded as 0. The “HepSE_elevated liver function tests” value in the data set on Hepatotoxicity [3] was 0. In the data set with Hepatotoxicity [4], this compound showed a HepSE_hepatomegaly of 0. Further, the HepSE_bilirubinemia in the data set on Hepatotoxicity [5] turned out to be 0. Moreover, in the data set on Hepatotoxicity [6], the “HepSE_liver function tests abnormal” value is 0. For the same compound, the “HepSE_Combined Scores” value in the data set with Hepatotoxicity [7] came out at 2. Moreover, the HepSE_hepatic necrosis in the data set on Hepatotoxicity [8] was found to be 0. Moreover, the HepSE_cholelithiasis with Hepatotoxicity [9] was found to be 0. Also, the HepSE_jaundice in the data set with Hepatotoxicity [10] came to 0. The same compound returned a HepSE_cirrhosis in the data set on Hepatotoxicity [11] of 1. The HepSE_hepatitis in the data set on Hepatotoxicity [12] is recorded as 0. In addition, the HepSE_liver fatty in the data set on Hepatotoxicity [13] turned out to be 0. This compound displayed a HepSE_hepatic failure with Hepatotoxicity [14] of 1.

As for `Sc1ncnc2nc[nH]c12` [MERCAPTOPURINE ANHYDROUS], the HepSE_cholecystitis with Hepatotoxicity [1] (Liver) turned out to be 0. In the data set on Hepatotoxicity [2] (Liver), this compound gave a HepSE_liver disease of 0. Further, in the data set on Hepatotoxicity [3] (Liver), the “HepSE_elevated liver function tests” value is on record as 0. In the data set with Hepatotoxicity [4] (Liver), this compound came in with a HepSE_hepatomegaly of 0. This compound registered a HepSE_bilirubinemia with Hepatotoxicity [5] (Liver) of 0. The “HepSE_liver function tests abnormal” value with Hepatotoxicity [6] (Liver) amounted to 0. Also, in the data set with Hepatotoxicity [7] (Liver), the “HepSE_Combined Scores” value was found to be 0. Moreover, in the data set with Hepatotoxicity [8] (Liver), the HepSE_hepatic necrosis is 0. Moreover, the HepSE_cholelithiasis in the data set with Hepatotoxicity [9] (Liver) is given as 0. This compound also yielded a HepSE_jaundice in the data set with Hepatotoxicity [10] (Liver) of 0. For the same compound, the HepSE_cirrhosis in the data set on Hepatotoxicity [11] (Liver) is 0. The compound further yielded a HepSE_hepatitis with Hepatotoxicity [12] (Liver) of 0. In the data set on Hepatotoxicity [13] (Liver), this compound displayed a HepSE_liver fatty of 0. This compound had a HepSE_hepatic failure in the data set with Hepatotoxicity [14] (Liver) of 0.

For `CC(=O)O` [ACETIC ACID], in the data set with Hepatotoxicity [1] (Liver), the HepSE_cholecystitis worked out at 0. Moreover, in the data set on Hepatotoxicity [2] (Liver), the HepSE_liver disease is recorded as 0. In addition, in the data set with Hepatotoxicity [3] (Liver), the “HepSE_elevated liver function tests” value is listed as 0. The same compound gave a HepSE_hepatomegaly in the data set with Hepatotoxicity [4] (Liver) of 0. In the data set on Hepatotoxicity [5] (Liver), this compound had a HepSE_bilirubinemia of 0. For the same compound, the “HepSE_liver function tests abnormal” value in the data set with Hepatotoxicity [6] (Liver) was found to be 0. Further, the “HepSE_Combined Scores” value with Hepatotoxicity [7] (Liver) is 0. This compound also gave a HepSE_hepatic necrosis in the data set with Hepatotoxicity [8] (Liver) of 0. In the data set on Hepatotoxicity [9] (Liver), this compound had a HepSE_cholelithiasis of 0. Moreover, the HepSE_jaundice with Hepatotoxicity [10] (Liver) came to 0. The HepSE_cirrhosis in the data set on Hepatotoxicity [11] (Liver) is 0. In the data set with Hepatotoxicity [12] (Liver), this compound yielded a HepSE_hepatitis of 0. In addition, in the data set on Hepatotoxicity [13] (Liver), the HepSE_liver fatty turned out to be 0. The compound also displayed a HepSE_hepatic failure with Hepatotoxicity [14] (Liver) of 0.

Regarding `CC[C@]1(O)C[C@@H]2CN(CCc3c([nH]c4ccccc34)[C@@](C(=O)OC)(c3cc4c(cc3OC)N(C)[C@H]3[C@@](O)(C(=O)OC)[C@H](OC(C)=O)[C@]5(CC)C=CCN6CC[C@]43[C@@H]65)C2)C1` [VINBLASTINE], the HepSE_cholecystitis with Hepatotoxicity [1] stood at 0. For the same compound, in the data set with Hepatotoxicity [2], the HepSE_liver disease was found to be 0. The “HepSE_elevated liver function tests” value in the data set with Hepatotoxicity [3] came to 0. The compound further registered a HepSE_hepatomegaly in the data set on Hepatotoxicity [4] of 0. Also, the HepSE_bilirubinemia in the data set with Hepatotoxicity [5] is given as 0. In addition, the “HepSE_liver function tests abnormal” value in the data set on Hepatotoxicity [6] came out at 0. For the same compound, the “HepSE_Combined Scores” value with Hepatotoxicity [7] turned out to be 0. Besides, the HepSE_hepatic necrosis in the data set on Hepatotoxicity [8] stood at 0. This compound also returned a HepSE_cholelithiasis in the data set with Hepatotoxicity [9] of 0. The compound also gave a HepSE_jaundice in the data set with Hepatotoxicity [10] of 0. In the data set with Hepatotoxicity [11], this compound returned a HepSE_cirrhosis of 0. The compound also displayed a HepSE_hepatitis with Hepatotoxicity [12] of 0. For the same compound, the HepSE_liver fatty with Hepatotoxicity [13] was found to be 0. In the data set on Hepatotoxicity [14], this compound had a HepSE_hepatic failure of 0.

In the case of `Cc1cccc([C@H](C)c2cnc[nH]2)c1C` [DEXMEDETOMIDINE], in the data set with Hepatotoxicity [1] (Liver), the HepSE_cholecystitis came out at 0. This compound also showed a HepSE_liver disease in the data set on Hepatotoxicity [2] (Liver) of 0. Besides, the “HepSE_elevated liver function tests” value with Hepatotoxicity [3] (Liver) came to 0. In the data set on Hepatotoxicity [4] (Liver), this compound yielded a HepSE_hepatomegaly of 0. The HepSE_bilirubinemia in the data set on Hepatotoxicity [5] (Liver) is 1. Also, in the data set with Hepatotoxicity [6] (Liver), the “HepSE_liver function tests abnormal” value was 0. The “HepSE_Combined Scores” value with Hepatotoxicity [7] (Liver) was 1. Besides, in the data set on Hepatotoxicity [8] (Liver), the HepSE_hepatic necrosis came out at 0. This compound had a HepSE_cholelithiasis with Hepatotoxicity [9] (Liver) of 0. Moreover, in the data set with Hepatotoxicity [10] (Liver), the HepSE_jaundice was determined as 0. In the data set on Hepatotoxicity [11] (Liver), this compound returned a HepSE_cirrhosis of 0. This compound also yielded a HepSE_hepatitis with Hepatotoxicity [12] (Liver) of 0. In addition, in the data set on Hepatotoxicity [13] (Liver), the HepSE_liver fatty came to 0. This compound also gave a HepSE_hepatic failure in the data set on Hepatotoxicity [14] (Liver) of 0.

Take `Nc1nnc(-c2cccc(Cl)c2Cl)c(N)n1` [LAMOTRIGINE]: in the data set with Hepatotoxicity [1], the HepSE_cholecystitis worked out at 0. For the same compound, the HepSE_liver disease in the data set on Hepatotoxicity [2] stood at 0. In addition, the “HepSE_elevated liver function tests” value in the data set on Hepatotoxicity [3] is 0. The same compound had a HepSE_hepatomegaly with Hepatotoxicity [4] of 0. The same compound came in with a HepSE_bilirubinemia in the data set on Hepatotoxicity [5] of 1. The “HepSE_liver function tests abnormal” value in the data set on Hepatotoxicity [6] was 1. In addition, the “HepSE_Combined Scores” value in the data set on Hepatotoxicity [7] is 3. In the data set with Hepatotoxicity [8], this compound gave a HepSE_hepatic necrosis of 0. This compound showed a HepSE_cholelithiasis in the data set on Hepatotoxicity [9] of 0. Also, in the data set on Hepatotoxicity [10], the HepSE_jaundice came to 0. In addition, the HepSE_cirrhosis in the data set on Hepatotoxicity [11] came out at 0. The HepSE_hepatitis in the data set with Hepatotoxicity [12] is reported as 1. Moreover, the HepSE_liver fatty in the data set with Hepatotoxicity [13] is 0. For the same compound, in the data set on Hepatotoxicity [14], the HepSE_hepatic failure was determined as 0.

Take `O=C(O)c1cc(=O)c2c(OCC(O)COc3cccc4oc(C(=O)O)cc(=O)c34)cccc2o1` [CROMOLYN]: the HepSE_cholecystitis with Hepatotoxicity [1] is recorded as 0. In the data set on Hepatotoxicity [2], this compound returned a HepSE_liver disease of 1. In addition, in the data set on Hepatotoxicity [3], the “HepSE_elevated liver function tests” value came to 0. The compound also registered a HepSE_hepatomegaly in the data set on Hepatotoxicity [4] of 0. This compound registered a HepSE_bilirubinemia with Hepatotoxicity [5] of 0. In addition, the “HepSE_liver function tests abnormal” value in the data set with Hepatotoxicity [6] is on record as 0. Besides, in the data set on Hepatotoxicity [7], the “HepSE_Combined Scores” value was determined as 1. Further, the HepSE_hepatic necrosis with Hepatotoxicity [8] worked out at 0. Besides, the HepSE_cholelithiasis with Hepatotoxicity [9] is listed as 0. This compound also registered a HepSE_jaundice with Hepatotoxicity [10] of 0. This compound also registered a HepSE_cirrhosis in the data set with Hepatotoxicity [11] of 0. Further, the HepSE_hepatitis in the data set with Hepatotoxicity [12] is reported as 0. The compound also showed a HepSE_liver fatty in the data set on Hepatotoxicity [13] of 0. The HepSE_hepatic failure in the data set on Hepatotoxicity [14] came out at 0.

On to `C#Cc1cccc(Nc2ncnc3cc(OCCOC)c(OCCOC)cc23)c1` [ERLOTINIB], for which the HepSE_cholecystitis in the data set with Hepatotoxicity [1] was 0. In the data set on Hepatotoxicity [2], this compound yielded a HepSE_liver disease of 1. Further, the “HepSE_elevated liver function tests” value in the data set with Hepatotoxicity [3] amounted to 0. Also, the HepSE_hepatomegaly in the data set on Hepatotoxicity [4] turned out to be 0. For the same compound, the HepSE_bilirubinemia in the data set on Hepatotoxicity [5] worked out at 0. In the data set on Hepatotoxicity [6], the “HepSE_liver function tests abnormal” value is 0. Moreover, the “HepSE_Combined Scores” value with Hepatotoxicity [7] was found to be 2. This compound displayed a HepSE_hepatic necrosis in the data set on Hepatotoxicity [8] of 0. The HepSE_cholelithiasis in the data set with Hepatotoxicity [9] is 0. The HepSE_jaundice in the data set with Hepatotoxicity [10] was determined as 0. In the data set with Hepatotoxicity [11], this compound yielded a HepSE_cirrhosis of 0. In addition, the HepSE_hepatitis with Hepatotoxicity [12] is recorded as 0. Also, in the data set on Hepatotoxicity [13], the HepSE_liver fatty turned out to be 0. This compound gave a HepSE_hepatic failure in the data set with Hepatotoxicity [14] of 1.

In turn, `CC(C)C(=O)Nc1ccc([N+](=O)[O-])c(C(F)(F)F)c1` [FLUTAMIDE] returned a HepSE_cholecystitis in the data set on Hepatotoxicity [1] of 0. The compound further displayed a HepSE_liver disease with Hepatotoxicity [2] of 0. Also, the “HepSE_elevated liver function tests” value in the data set on Hepatotoxicity [3] was 0. In addition, the HepSE_hepatomegaly in the data set on Hepatotoxicity [4] is given as 0. For the same compound, in the data set with Hepatotoxicity [5], the HepSE_bilirubinemia is 0. For the same compound, the “HepSE_liver function tests abnormal” value in the data set on Hepatotoxicity [6] amounted to 0. In the data set on Hepatotoxicity [7], the “HepSE_Combined Scores” value is 3. In addition, the HepSE_hepatic necrosis in the data set with Hepatotoxicity [8] is listed as 1. The HepSE_cholelithiasis in the data set on Hepatotoxicity [9] is reported as 0. In addition, the HepSE_jaundice with Hepatotoxicity [10] stood at 1. Further, in the data set with Hepatotoxicity [11], the HepSE_cirrhosis turned out to be 0. In the data set with Hepatotoxicity [12], this compound came in with a HepSE_hepatitis of 1. Also, the HepSE_liver fatty with Hepatotoxicity [13] is given as 0. In the data set on Hepatotoxicity [14], the HepSE_hepatic failure amounted to 0.
